Reference: PMC11900317, “KinasePred: A Computational Tool for Small-Molecule Kinase Target Prediction” (International Journal of Molecular Sciences, 2025)
Where two headings read alike, the source gives them in different places.

Key:
Assay in all cases: Z'-LYTE fluorescence kinase assay, single point
Assay type in all cases: biochemical
[1] = molecular target: T1, ROCK2 (Homo sapiens, UniProt O75116); details: read-out: VS2
T1 construct: commercial kinase panel (Z'-LYTE, Thermo Fisher)
Source text: Z'-LYTE fluorescence kinase assay, single point on ROCK2

[2] = molecular target: T2, LRKK2 (Homo sapiens, UniProt Q5S007)
T2 construct: gene LRRK2; commercial kinase panel (Z'-LYTE, Thermo Fisher)
Source text: Z'-LYTE fluorescence kinase assay, single point on LRKK2

[3] = molecular target: T3, CSF1R (Homo sapiens, UniProt P07333)
T3 construct: commercial kinase panel (Z'-LYTE, Thermo Fisher)
Source text: Z'-LYTE fluorescence kinase assay, single point on CSF1R

[4] = molecular target: T4, MAPK8 (Homo sapiens, UniProt P45983); details: read-out: VS6
T4 construct: commercial kinase panel (Z'-LYTE, Thermo Fisher)
Source text: Z'-LYTE fluorescence kinase assay, single point on MAPK8

[5] = molecular target: T5, SYK (Homo sapiens, UniProt P43405)
T5 construct: commercial kinase panel (Z'-LYTE, Thermo Fisher)
Source text: Z'-LYTE fluorescence kinase assay, single point on SYK

[6] = molecular target: T6, IRAK4 (Homo sapiens, UniProt Q9NWZ3); details: read-out: VS7
T6 construct: commercial kinase panel (Z'-LYTE, Thermo Fisher)
T6 sequence (Q9NWZ3 1-460): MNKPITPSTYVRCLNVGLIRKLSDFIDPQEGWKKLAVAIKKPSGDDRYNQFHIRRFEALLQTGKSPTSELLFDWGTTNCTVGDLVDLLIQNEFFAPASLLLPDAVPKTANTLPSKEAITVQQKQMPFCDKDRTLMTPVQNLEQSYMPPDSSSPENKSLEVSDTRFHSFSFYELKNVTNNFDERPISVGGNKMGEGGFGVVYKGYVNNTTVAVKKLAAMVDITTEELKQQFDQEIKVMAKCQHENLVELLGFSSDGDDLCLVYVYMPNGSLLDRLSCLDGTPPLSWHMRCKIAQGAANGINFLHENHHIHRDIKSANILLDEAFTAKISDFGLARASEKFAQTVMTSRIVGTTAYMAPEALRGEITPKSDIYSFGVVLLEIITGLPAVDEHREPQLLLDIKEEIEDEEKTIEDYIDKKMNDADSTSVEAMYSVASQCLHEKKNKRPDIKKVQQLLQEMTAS
Source text: Z'-LYTE fluorescence kinase assay, single point on IRAK4

[7] = molecular target: T7, LCK (Homo sapiens, UniProt P06239); details: read-out: VS7
T7 construct: commercial kinase panel (Z'-LYTE, Thermo Fisher)
Source text: Z'-LYTE fluorescence kinase assay, single point on LCK

[8] = molecular target: T8, PTK2 (Homo sapiens, UniProt Q05397); details: read-out: VS7
T8 construct: commercial kinase panel (Z'-LYTE, Thermo Fisher)
Source text: Z'-LYTE fluorescence kinase assay, single point on PTK2

[9] = molecular target: T9, NTRK1 (Homo sapiens, UniProt P04629); details: read-out: VS7
T9 construct: commercial kinase panel (Z'-LYTE, Thermo Fisher)
Source text: Z'-LYTE fluorescence kinase assay, single point on NTRK1

T3 sequence (P07333 20-972): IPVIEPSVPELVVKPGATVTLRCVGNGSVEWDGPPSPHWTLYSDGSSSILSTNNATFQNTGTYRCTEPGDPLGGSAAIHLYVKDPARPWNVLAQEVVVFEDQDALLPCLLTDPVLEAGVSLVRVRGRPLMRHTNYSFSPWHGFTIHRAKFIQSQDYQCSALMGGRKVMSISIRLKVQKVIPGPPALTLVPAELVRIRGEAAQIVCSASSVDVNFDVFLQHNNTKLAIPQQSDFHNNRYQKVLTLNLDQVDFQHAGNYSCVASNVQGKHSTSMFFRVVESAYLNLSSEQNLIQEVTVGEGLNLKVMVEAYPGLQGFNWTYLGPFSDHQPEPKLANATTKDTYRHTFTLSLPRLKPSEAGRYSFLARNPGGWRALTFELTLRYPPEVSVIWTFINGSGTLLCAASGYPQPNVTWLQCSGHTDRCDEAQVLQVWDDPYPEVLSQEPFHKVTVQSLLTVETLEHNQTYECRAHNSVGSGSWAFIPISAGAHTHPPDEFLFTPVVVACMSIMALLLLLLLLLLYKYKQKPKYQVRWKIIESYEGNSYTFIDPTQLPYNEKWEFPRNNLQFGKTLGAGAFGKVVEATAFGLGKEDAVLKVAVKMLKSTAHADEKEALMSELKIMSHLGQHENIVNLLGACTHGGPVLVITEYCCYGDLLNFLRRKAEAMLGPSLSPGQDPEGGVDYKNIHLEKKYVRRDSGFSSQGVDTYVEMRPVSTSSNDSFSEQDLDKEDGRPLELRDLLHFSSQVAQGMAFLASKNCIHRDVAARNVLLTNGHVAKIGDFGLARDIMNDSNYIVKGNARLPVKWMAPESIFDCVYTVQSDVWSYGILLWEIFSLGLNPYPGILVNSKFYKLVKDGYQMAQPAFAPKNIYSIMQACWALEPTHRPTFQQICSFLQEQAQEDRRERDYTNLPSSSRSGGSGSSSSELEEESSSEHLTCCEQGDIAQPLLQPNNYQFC
T2 sequence (Q5S007 whole entry): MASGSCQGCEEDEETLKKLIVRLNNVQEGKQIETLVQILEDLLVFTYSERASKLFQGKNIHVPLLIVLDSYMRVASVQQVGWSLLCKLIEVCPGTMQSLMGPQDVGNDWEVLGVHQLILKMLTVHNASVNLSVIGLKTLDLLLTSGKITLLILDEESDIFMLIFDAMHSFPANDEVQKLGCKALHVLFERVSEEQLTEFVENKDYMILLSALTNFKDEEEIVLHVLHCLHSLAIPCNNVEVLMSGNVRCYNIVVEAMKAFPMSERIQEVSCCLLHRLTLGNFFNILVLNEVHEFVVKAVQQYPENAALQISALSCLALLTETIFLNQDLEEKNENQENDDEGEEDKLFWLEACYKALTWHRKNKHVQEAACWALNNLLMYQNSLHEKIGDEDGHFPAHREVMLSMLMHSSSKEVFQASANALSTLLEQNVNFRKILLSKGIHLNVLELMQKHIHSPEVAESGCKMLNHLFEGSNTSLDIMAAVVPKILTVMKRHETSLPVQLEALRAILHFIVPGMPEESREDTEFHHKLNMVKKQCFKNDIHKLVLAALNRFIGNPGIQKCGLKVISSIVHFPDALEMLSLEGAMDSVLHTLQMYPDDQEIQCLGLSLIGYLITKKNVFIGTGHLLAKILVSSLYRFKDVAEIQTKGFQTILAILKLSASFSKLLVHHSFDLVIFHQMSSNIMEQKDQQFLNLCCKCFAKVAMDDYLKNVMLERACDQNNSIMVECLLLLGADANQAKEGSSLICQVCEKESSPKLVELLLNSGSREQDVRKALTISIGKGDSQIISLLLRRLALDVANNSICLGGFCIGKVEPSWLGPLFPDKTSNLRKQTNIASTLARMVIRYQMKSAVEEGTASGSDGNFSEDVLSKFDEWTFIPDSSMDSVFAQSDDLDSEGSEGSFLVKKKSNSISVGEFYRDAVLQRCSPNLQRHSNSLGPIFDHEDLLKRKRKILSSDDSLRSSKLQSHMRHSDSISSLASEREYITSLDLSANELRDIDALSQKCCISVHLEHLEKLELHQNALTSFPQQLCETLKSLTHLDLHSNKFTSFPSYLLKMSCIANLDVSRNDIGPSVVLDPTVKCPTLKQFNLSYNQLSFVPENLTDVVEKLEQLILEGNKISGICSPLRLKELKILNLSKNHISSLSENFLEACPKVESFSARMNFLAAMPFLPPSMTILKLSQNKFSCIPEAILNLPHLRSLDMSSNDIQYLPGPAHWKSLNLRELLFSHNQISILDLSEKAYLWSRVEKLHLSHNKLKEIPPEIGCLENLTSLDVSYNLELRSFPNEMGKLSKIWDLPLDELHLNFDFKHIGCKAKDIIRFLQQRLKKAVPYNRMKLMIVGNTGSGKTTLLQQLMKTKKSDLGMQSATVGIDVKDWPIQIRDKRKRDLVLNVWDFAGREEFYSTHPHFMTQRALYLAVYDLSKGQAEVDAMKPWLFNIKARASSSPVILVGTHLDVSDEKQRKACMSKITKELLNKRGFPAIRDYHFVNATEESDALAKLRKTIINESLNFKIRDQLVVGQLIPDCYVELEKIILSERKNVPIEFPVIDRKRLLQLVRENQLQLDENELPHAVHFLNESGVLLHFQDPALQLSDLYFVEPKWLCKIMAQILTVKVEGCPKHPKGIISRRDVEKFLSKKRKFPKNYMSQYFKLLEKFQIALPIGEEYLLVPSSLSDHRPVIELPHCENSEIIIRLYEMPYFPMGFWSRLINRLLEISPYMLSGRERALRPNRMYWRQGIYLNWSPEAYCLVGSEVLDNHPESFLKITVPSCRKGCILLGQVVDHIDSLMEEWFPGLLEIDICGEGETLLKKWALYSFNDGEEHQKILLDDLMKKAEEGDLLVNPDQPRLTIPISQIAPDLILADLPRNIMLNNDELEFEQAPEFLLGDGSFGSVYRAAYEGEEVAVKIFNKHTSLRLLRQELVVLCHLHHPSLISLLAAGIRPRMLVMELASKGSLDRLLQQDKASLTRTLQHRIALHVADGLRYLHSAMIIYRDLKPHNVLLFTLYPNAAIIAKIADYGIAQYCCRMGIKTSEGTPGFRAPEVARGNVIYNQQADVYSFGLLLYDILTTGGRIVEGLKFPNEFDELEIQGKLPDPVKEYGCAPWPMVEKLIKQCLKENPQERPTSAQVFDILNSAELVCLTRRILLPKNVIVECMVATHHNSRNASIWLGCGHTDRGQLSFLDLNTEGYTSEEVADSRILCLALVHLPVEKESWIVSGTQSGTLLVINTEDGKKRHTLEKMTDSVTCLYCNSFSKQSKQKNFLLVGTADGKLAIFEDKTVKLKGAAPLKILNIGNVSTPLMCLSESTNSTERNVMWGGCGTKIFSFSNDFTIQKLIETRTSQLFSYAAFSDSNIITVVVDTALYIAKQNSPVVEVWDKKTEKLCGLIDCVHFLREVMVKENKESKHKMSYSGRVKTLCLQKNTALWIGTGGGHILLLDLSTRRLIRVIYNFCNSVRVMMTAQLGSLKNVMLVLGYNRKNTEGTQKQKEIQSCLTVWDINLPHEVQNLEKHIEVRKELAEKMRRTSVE
T1 sequence (O75116 whole entry): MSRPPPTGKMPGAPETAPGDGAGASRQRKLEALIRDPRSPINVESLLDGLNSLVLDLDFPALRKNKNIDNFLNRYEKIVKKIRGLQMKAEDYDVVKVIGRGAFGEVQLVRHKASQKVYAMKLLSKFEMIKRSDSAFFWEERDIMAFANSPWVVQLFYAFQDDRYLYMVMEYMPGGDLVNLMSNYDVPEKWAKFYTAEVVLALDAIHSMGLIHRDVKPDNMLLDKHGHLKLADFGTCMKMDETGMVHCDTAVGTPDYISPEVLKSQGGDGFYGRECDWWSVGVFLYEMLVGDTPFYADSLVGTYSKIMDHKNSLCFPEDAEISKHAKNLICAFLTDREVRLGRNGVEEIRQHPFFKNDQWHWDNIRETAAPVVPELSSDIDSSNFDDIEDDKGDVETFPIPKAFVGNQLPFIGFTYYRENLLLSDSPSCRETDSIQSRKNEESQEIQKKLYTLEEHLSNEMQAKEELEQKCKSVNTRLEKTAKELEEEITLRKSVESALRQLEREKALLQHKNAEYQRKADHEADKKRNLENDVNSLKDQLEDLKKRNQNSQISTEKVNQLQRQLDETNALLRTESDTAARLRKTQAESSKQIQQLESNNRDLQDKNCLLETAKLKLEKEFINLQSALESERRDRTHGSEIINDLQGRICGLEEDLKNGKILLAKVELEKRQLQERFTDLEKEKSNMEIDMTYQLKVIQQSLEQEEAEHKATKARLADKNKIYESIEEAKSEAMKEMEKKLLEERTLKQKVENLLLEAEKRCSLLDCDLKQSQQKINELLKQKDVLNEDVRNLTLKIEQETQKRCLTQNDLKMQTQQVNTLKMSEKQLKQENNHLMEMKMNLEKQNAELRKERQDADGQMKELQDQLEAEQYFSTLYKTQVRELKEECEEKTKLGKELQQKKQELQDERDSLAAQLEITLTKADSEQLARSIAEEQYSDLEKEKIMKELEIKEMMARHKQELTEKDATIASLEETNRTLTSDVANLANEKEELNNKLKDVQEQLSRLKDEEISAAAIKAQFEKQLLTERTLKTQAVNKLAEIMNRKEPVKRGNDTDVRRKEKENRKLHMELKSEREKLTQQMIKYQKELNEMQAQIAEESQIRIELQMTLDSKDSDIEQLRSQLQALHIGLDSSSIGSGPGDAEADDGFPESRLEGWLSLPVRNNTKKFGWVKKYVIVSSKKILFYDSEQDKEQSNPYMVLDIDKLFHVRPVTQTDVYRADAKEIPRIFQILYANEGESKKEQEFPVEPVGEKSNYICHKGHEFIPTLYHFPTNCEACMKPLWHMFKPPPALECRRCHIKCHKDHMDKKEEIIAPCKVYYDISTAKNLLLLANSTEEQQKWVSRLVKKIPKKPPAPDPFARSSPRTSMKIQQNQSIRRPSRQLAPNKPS

O=C(Nc1ccncc1)c1cccc(C(F)(F)F)c1 [VS2]
inhibition at 10 µM [1]: 74%
inhibition at 10 µM ([2]; read-out: VS2): 50%

COc1cc(/C=C(/C#N)C(=O)c2ccccc2)ccc1O [VS3]
inhibition at 10 µM ([2]; read-out: VS3): 54%

Cc1cc(C(=O)Nc2scc(-c3ccc(C)c(C)c3)c2C(N)=O)no1 [VS5]
inhibition at 10 µM ([3]; read-out: VS5): 54%

c1ccc(Nc2nccc(-c3ccsc3)n2)cc1 [VS6]
inhibition at 10 µM ([3]; read-out: VS6): 89%
inhibition at 10 µM [4]: 63%
inhibition at 10 µM ([2]; read-out: VS6): 60%
inhibition at 10 µM ([5]; read-out: VS6): 57%

NC(=O)c1ccc(Nc2nc(NCc3ccco3)c3ccccc3n2)cc1 [VS7]
inhibition at 10 µM [6]: 80%
inhibition at 10 µM [7]: 53%
inhibition at 10 µM ([3]; read-out: VS6): 89%
inhibition at 10 µM [8]: 66%
inhibition at 10 µM ([2]; read-out: VS7): 100%
inhibition at 10 µM ([5]; read-out: VS7): 90%
inhibition at 10 µM [9]: 90%
